In US9233127B2, “Compositions and methods for CXCR4 signaling and umbilical cord blood stem cell engraftment” (University of Virginia Patent Foundation, priority 2012, dated 2016):
Entries after “also recorded” stand apart in the source; their conditions may differ.

Experiments:
[1] = system: murine BMNCs and CFU-GM progenitor cells; assay: Migration of murine BMNCs and CFU-GM progenitors to SDF-1 gradient after cationic peptide priming; assay type: cell-based
Description: FIG. 8A-B—A) BM mononuclear cell and B) CFU-GM migration in response to an SDF-1 gradient after priming with LL-37 or hBD-2. Values are fold increases of migrated cells compared to media alone.
FIG. 17A-B—Cationic peptides released from granulocytes enhance responsiveness of HSPCs to SDF-1 gradient. […] Values are the fold increases of migrated cells compared to media alone. M, media alone; SDF-1 (L), 50 ng/ml; SDF-1 (H), 300 ng/ml; C3a, 1 μg/ml. * P<0.05 as compared with SDF-1 (50 ng/ml) alone. The data shown represent the combine results from four independent experiments carried out in triplicate per group (n=12).
We also evaluated the effect of complement fragment 5a (C5a). […] After leaving the BM, granulocytes undergo degranulation in response to plasma C5a and secrete cationic peptides, such as cathelicidin (LL-37) and β-defensin-2 (hBD-2). […] It was hypothesized that this response may be affected by the distribution of membrane lipids by cationic peptides. […] Direct confocal analysis of CXCR4 and lipid raft colocalization in the presence or absence of cationic peptides confirmed these findings.

[2] = system: UCB T-cells; assay: Cytoplasmic IFN-γ and NFAT1 expression in UCB T-cells during mitogen stimulation; assay type: cell-based, human; conditions: for percentages of IFN-γ-expressing UCB T-cells: exogenous cytokine added during mitogen stimulation, IFN-γ 100 or 1,000 U/ml, 24 h
Description: To further test expression and regulation, exogenous IFN-γ was added (100 or 1,000 U/ml) during mitogen stimulation and cytoplasmic IFN-γ expression in UCB T-cells was measured.

[3] = system: NFAT1; assay: NFAT1 protein and miR-184 in UCB CD4 T-cells stimulated with αCD3/CD28 plus exogenous IFN-γ; assay type: cell-based, human; conditions: for NFAT1 protein expression: CD3/28 stimulation 24 h, absence of monocytes, 1000 U/ml
Description: FIG. 22A-B—Rescue of NFAT1 protein in UCB CD4 T-cells during primary stimulation in the presence of exogenous IFN-γ. UCB CD4 T-cells were stimulated with αCD3/CD28 for 24 h with 1000 U/ml of exogenous rh-IFN-γ. Cell lysates were harvested and Western Blot was probed for NFAT1 and β-actin.

[4] = system: CD34+ cells; assay: Transwell chemotaxis of CD34+ cells to an SDF-1 gradient (priming); assay type: cell-based, human
Description: (§1) FIG. 11A-B—Effect of SLP and its components on chemotaxis of CD34^+ cells. Panel A: Chemotaxis of BM CD34^+ cells towards medium alone (control), SDF-1 low (10 ng/mL) alone, SLP (combined SLP from three patients), SDF-1 low+SLP, and SDF-1 high (300 ng/mL). Data are pooled from quadruplicate samples from three independent experiments. *p<0.00001. Panel B: Chemotaxis of UCB CD34^+ cells to medium alone (control), SDF-1 low (10 ng/mL) alone and SDF-1 low (10 ng/mL)+uPAR (1 μg/mL) or +ICAM (1 μg/mL) or +VCAM (1 μg/mL) or +FN (2 μg/mL), or +FG (4 μg/mL) or +C3a (1 μg/mL). Data are pooled from quadruplicate samples from three independent experiments. * p<0.00001.
Chemotaxis of CD34^+ cells to medium alone (control), C3a (1 μg/ml), C3adesArg (1 μg/ml), SDF-1 low (10 ng/mL) alone, and SDF-1 low (10 ng/mL)+C3a low (0.1 μg/ml) or SDF-1 low (10 ng/mL)+C3a (1 μg/ml) or SDF-1 low (10 ng/mL)+C3adesArg (1 μg/ml). Data are pooled from quadruplicate samples from three independent experiments.* p<0.00001.
FIG. 13A-B—Chemotaxis of cells to an SDF-1 gradient is lipid raft-dependent. Panel A: Chemotaxis of CD34^+ cells to medium alone (control), SDF-1 (300 ng/mL) and SDF-1 (300 ng/mL) after preincubation for 1 hr with Amphotericin (10 μg/mL) or Nystatin (50 μg/mL). Cells were collected after chemotaxis from the lower chambers and plated in a clonogenic assay. The number of CFU-GM and BFU-E colonies formed by harvested cells is shown as a percentage of control values. Data are pooled from quadruplicate samples from three independent experiments. *p<0.0001. Panel B: Chemotaxis of CD34^+ cells towards medium alone (control), SDF-1 low (10 ng/mL) alone, or SDF-1 low with cells exposed to C3a (1 μg/mL). Cells pretreated before chemotaxis for 1 hr with MβCD (2.5 mM) are shown as gray bars. Data are pooled from quadruplicate samples from three independent experiments. * p<0.00001.
HSPCs from the mPB engraft faster compared to HSPCs aspirated from BM. To test the hypothesis that mPB-derived HSPCs are primed in their responses to SDF-1 by molecules present in SLP, we pooled together SLP from three patients and exposed BM or UCB CD34^+ cells to the SLP during chemotaxis to a low (10 ng/mL) dose of SDF-1.
To address this issue further, the formation of rafts in the cells was perturbed by MβCD, which depletes cholesterol from the cell membrane. The CD34^+ cells were pre-incubated with MβCD for 1 hr. Chemotaxis to a low dose of SDF-1 in the presence of C3a (in the upper chambers) was evaluated.

[5] = system: UCB CD34+ cells; assay: Transwell chemotaxis of UCB CD34+ cells to SDF-1 (priming); assay type: cell-based, human; conditions: for chemotactic response of UCB CD34+ cells to SDF-1: added to lower chambers with SDF-1 10 ng/mL, uPAR, ICAM, VCAM, C3a 1 μg/mL, FN 2 μg/mL, FG 4 μg/mL; for induction of chemotaxis of HSPCs when used alone: without SDF-1
Description: as §1
An increased migration of UCB-derived CD34^+ cells, as compared to BM and mPB CD34^+ cells was reported in transwell migration assays was previously reported. However, we noticed large inter-individual differences in the in vitro migratory ability of UCB CD34^+ cells, ranging from 1.1% to 14.3% for spontaneous migration and 3.1% to 62.3% for SDF-1-induced (300 ng/mL) migration. The lower migratory capacity in vitro of UCB-derived CD34^+ cells was not due to lower expression of CXCR4, but likely reflects the decreased migratory behavior of these cells. […] Based on this, we postulate that UCB HSPC responsiveness to an SDF-1 gradient varies with each collected UCB unit and that, in cases when responsiveness is low, UCB HSPCs should be identified and primed before infusion.
Moreover, as SLP contains several components that potentially could prime the responses of CD34^+ cells, (Example 2, FIG. 11, panel B) the most important being PMV and activated complement proteins such as anaphylatoxin C3a, soluble VCAM-1, soluble ICAM-1, uPAR, FG, and FN, we evaluated whether these factors could induce the chemotaxis of HSPCs when used alone. […] We also examined whether FG, FN, soluble VCAM-1, soluble ICAM-1, uPAR, and C3a prime HSPCs in their responses to SDF-1. […] To determine whether this also affects UCB CD34^+ clonogenic progenitors, UCB CD34^+ cells were collected from the lower chambers after the chemotaxis assay and plated in methylcellulose cultures. […] Moreover, a similar effect for the established hematopoietic cell lines Molt 4, Nalm-6, and THP-1 was also found (data not shown).

[6] = system: CXCR4; assay: Western blot of CXCR4 in lipid raft membrane fractions of THP-1 cells; assay type: cell-based, human
Description: FIG. 15A-B—Western blot analysis of the colocalization of CXCR4 in fractions of cell membranes enriched in lipid rafts (fractions 3-5) and depleted of lipid rafts (fractions 9-11). Panel A: Hematopoietic THP-1 cells were stimulated by C3a (1 μg/mL) or desArgC3a (1 μg/mL) or not stimulated (control). CXCR4 was detected in these membrane fractions by Western blot along with ganglioside GM1, a marker of lipid rafts. Experiments were performed three times with similar results. Panel B: In control experiments, cells were pretreated for 1 hr with 10 mM MβCD. A representative study is shown.
Furthermore, direct evidence of the effect of priming agents on CXCR4 incorporation into membrane lipid rafts was obtained from Western blot analysis of CXCR4 expression in various fractions of cell membranes isolated according to their lipid raft content (Example 2, FIG. 15A-B). […] The role of C3a in incorporation of CXCR4 into membrane lipid rafts in UCB cells and involvement of other signaling molecules to this phenomenon will be evaluated in Aim 1.

Molecule: MIP-3alpha: agonist of a membrane receptor that may bind the cationic peptides [reference compound]
- responsiveness of hematopoietic progenitors to plasma SDF-1 (priming effect) [1]: did not show similar priming effects

Molecule: IFN-γ: exogenous rh-IFN-γ
- percentages of IFN-γ-expressing UCB T-cells [2]: nearly increased to that measured in adult T-cells
- NFAT1 expression and concomitant IFN-γ expression ([2]; mitogen (ConA) stimulation plus exogenous IFN-γ): strong increases
- IFN-γ expression ([2]; treatment with IFN-γ alone): did not stimulate IFN-γ expression
- NFAT1 expression ([2]; treatment with IFN-γ alone): only slightly increased
- miR-184 expression (qRT-PCR) ([3]; CD3/28 primary stimulation): marked decrease; also recorded: observed to decrease
- NFAT1 protein expression [3]: increases in NFAT1 protein expression
- NFAT1 protein expression ([3]; listed as rh-IFN-γ): noted to increase

Molecule: desArgC3a: fragment of C3a where the end arginine residue is cleaved; 76 residues; SEQ ID NO:2
- chemotaxis of human CD34+ cells to low-threshold doses of SDF-1 ([4]; SDF-1 low 10 ng/mL, C3a or C3adesArg 1 μg/ml): potentiate (prime) chemotaxis
- chemoattraction of CD34+ cells by the C3 cleavage fragment on its own ([4]; no SDF-1, 1 μg/ml): neither C3 cleavage fragments chemoattract
- responsiveness of UCB cells to SDF-1 gradient ([5]; UCB-derived CD34+ cells exposed/primed): significantly increase the responsiveness
- incorporation of Rac-1 into membrane lipid rafts [6]: increased the incorporation of Rac-1
- incorporation of CXCR4 into GM1-enriched membrane lipid rafts (fractions 3-5) ([6]; 1 μg/mL): stimulates incorporation of CXCR4

Molecule: TNF-α
- percentages of IFN-γ-expressing UCB T-cells [2]: did not result in up-regulation

B1: soluble VCAM-1: soluble VCAM-1, component of SLP (protein, UniProt P19320 25-698, looked up)
extracellular domain: FKIETTPESRYLAQIGDSVSLTCSTTGCESPFFSWRTQIDSPLNGKVTNEGTTSTLTMNPVSFGNEHSYLCTATCESRKLEKGIQVEIYSFPKDPEIHLSGPLEAGKPITVKCSVADVYPFDRLEIDLLKGDHLMKSQEFLEDADRKSLETKSLEVTFTPVIEDIGKVLVCRAKLHIDEMDSVPTVRQAVKELQVYISPKNTVISVNPSTKLQEGGSVTMTCSSEGLPAPEIFWSKKLDNGNLQHLSGNATLTLIAMRMEDSGIYVCEGVNLIGKNRKEVELIVQEKPFTVEISPGPRIAAQIGDSVMLTCSVMGCESPSFSWRTQIDSPLSGKVRSEGTNSTLTLSPVSFENEHSYLCTVTCGHKKLEKGIQVELYSFPRDPEIEMSGGLVNGSSVTVSCKVPSVYPLDRLEIELLKGETILENIEFLEDTDMKSLENKSLEMTFIPTIEDTGKALVCQAKLHIDDMEFEPKQRQSTQTLYVNVAPRDTTVLVSPSSILEEGSSVNMTCLSQGFPAPKILWSRQLPNGELQPLSENATLTLISTKMEDSGVYLCEGINQAGRSRKEVELIIQVTPKDIKLTAFPSESVKEGDTVIISCTCGNVPETWIILKKKAETGDTVLKSIDGAYTIRKAQLKDAGVYECESKNKVGSQLRSLTLDVQGRENNKDYFSPE
modifications: extracellular domain
notes: soluble VCAM-1, component of SLP
- chemotactic response of UCB CD34+ cells to SDF-1 [5]: increased the chemotactic response
- induction of chemotaxis of HSPCs when used alone [5]: no evidence that they did

B2: soluble ICAM-1: soluble ICAM-1, component of SLP (protein, UniProt P05362 28-480, looked up)
extracellular domain: QTSVSPSKVILPRGGSVLVTCSTSCDQPKLLGIETPLPKKELLLPGNNRKVYELSNVQEDSQPMCYSNCPDGQSTAKTFLTVYWTPERVELAPLPSWQPVGKNLTLRCQVEGGAPRANLTVVLLRGEKELKREPAVGEPAEVTTTVLVRRDHHGANFSCRTELDLRPQGLELFENTSAPYQLQTFVLPATPPQLVSPRVLEVDTQGTVVCSLDGLFPVSEAQVHLALGDQRLNPTVTYGNDSFSAKASVSVTAEDEGTQRLTCAVILGNQSQETLQTVTIYSFPAPNVILTKPEVSEGTEVTVKCEAHPRAKVTLNGVPAQPLGPRAQLLLKATPEDNGRSFSCSATLEVAGQLIHKNQTRELRVLYGPRLDERDCPGNWTWPENSQQTPMCQAWGNPLPELKCLKDGTFPLPIGESVTVTRDLEGTYLCRARSTQGEVTRKVTVNVLSPRYE
modifications: extracellular domain
notes: soluble ICAM-1, component of SLP
- chemotactic response of UCB CD34+ cells to SDF-1 [5]: increased the chemotactic response
- induction of chemotaxis of HSPCs when used alone [5]: no evidence that they did
